Data on one compound can be found in PMC9951290, “Comprehensive Structure–Activity Relationship Studies of Cepafungin Enabled by Biocatalytic C–H Oxidations” (ACS Central Science, 2023).

The test system of the assay is 20S proteasome subunits. Put plainly: Competitive in situ LC-MS/MS pull-down with alkyne probe S10 and 1 (Figure S1, Table S3). It counts as cell-based, human. The settings on record: 100 nM 1 versus 10 μM S10, RPMI 8226; targets: 20S proteasome subunits β5, β2i, α5, β1, β2. Here is the method:
To determine the targets of cepafungin I in human MM cells through chemoproteomics, a clickable analogue (S10) was designed with alkyne functionality distal to the reactive macrocycle (i.e., at the end of the fatty acid chain). The synthesis of S10 proceeded in a similar fashion as in Scheme 2B except with the tail fragment built from initial alkyne substitution of 6-bromo-1-hexanol. […] To identify these targets, a competitive in situ LC-MS/MS-based pull-down experiment was performed using alkyne probe S10 and 1. Following live cell treatment with just the probe or the probe together with the natural product, alkyne conjugation to biotin-azide and pull-down with streptavidin beads, the probe analogue enriched 764 proteins from RPMI 8226. […] These targets were identified as the 20S proteasome subunits β5, β2i, α5, β1, and β2, highlighting cepafungin’s exceptional selectivity for the proteasome in MM cells (Figure S1 and Table S3). […] The “i” suffix here denotes subunits of the immunoproteasome, which is produced by most cells exposed to oxidative stress or proinflammatory cytokines and also by immune cells at especially high baseline levels.[37] […]
fluorescence was read at A360ex/A460em. […]
in DMSO) or DMSO and cultured for 48 hours. Toxicity was determined using the WST-1 assay (Roche) according to the protocol of the manufacturer. […]

As for `CC(C)CCCCCC=CC=CC(=O)NC(C(=O)NC1CC(O)CCNC(=O)C=CC(C)NC1=O)C(C)O` (stereo not shown) [compound 1, cepafungin I], the “number of enriched proteins competed >50%” value worked out at 5 proteins.
